{"source": "patent US20020114804A1", "about": "“A METHOD OF TREATING INFECTION OF SUTURES AND PROSTHETIC DEVICES” (priority 1996, published 2002)", "format_in_all_cases": "cell-based, human", "key": {"PMNs [1]": {"tested_on": "PMNs", "test": "PMN migration through gels of Matrigel or collagen IV", "details": "added to the bottom chamber", "description": "(§1) Becton-Dickinson cell culture inserts (pore sizes 3 or 8 μm: Franklin Lakes, N.J.) were overlaid with the following proteins:\nCollagen type IV and Matrigel matrices: 0.1 ml PBS containing 100 μg human placental collagen IV (Fluka Chemical Corp., Ronkonkoma, N.Y.), or 80 μg of reconstituted basement membrane proteins (Matrigel, Collaborative Research, Bedford, Mass.), was placed into each insert and allowed to gel at room temperature for 24 hrs.\nPMNs were prepared from fresh heparinized blood from healthy adult volunteers by sedimentation on Ficoll-Hypaque gradients. Contaminating red blood cells were removed by hypotonic lysis, as described (7). The purity of PMN isolated by this method is >95% as determined by Wright-Giemsa staining (7). 10^6 PMNs in 250 μl of PBS supplemented with 5.5 mM glucose and 0.1% human serum albumin (PBSG-HSA), were placed in the upper compartment of each insert and incubated for 0-6 hrs at 37° C. in a humidified atmosphere containing 95% air/5% CO2. At the times and concentrations specified, chemoattractants/cytokines were added to the top or bottom compartment in 250 μl of PBSG-HSA. […] The medium in each lower compartment was collected and its content of PMNs was determined using either a Coulter Counter or a hemocytometer. […] Counts are expressed as the average number of PMNs that migrated into the lower compartment. […]"}, "PMNs [2]": {"tested_on": "PMNs", "test": "PMN migration through Matrigel or Matrigel/tenascin coated filters", "details": "Matrigel alone", "description": "Polymorphonuclear leukocytes (PMN), were prepared as described (7) from heparinized human blood by sedimentation on Ficoll-Hypaque gradients. Contaminating red blood cells were removed by hypotonic lysis. The purity of PMN isolated by this method was >95% as determined by Wright-Giemsa staining.\nCell culture inserts containing polyethylene terephthalate filters, 8-μm pore size (Becton-Dickinson), were overlaid with 0.1 ml of Matrigel (20-25 μg protein/filter) (Collaborative Research, Bedford, Mass.), and incubated at room temperature until they dried. These Matrigel-coated filters were washed with phosphate buffered saline containing 1.0 mM Mg^2+ and 1.0 mM Ca^2+ (PBS). 0.1 ml of a PBS solution (pH 7.2) containing the indicated amount of purified chick brain tenascin was added to some of the inserts. The filters were incubated at room temperature until they dried. These protein-coated filters were washed again with PBS and used within 12 h for cell migration studies. To prepare collagen I-coated inserts, filters were coated with rat tail collagen I (ICN Biochemicals, Costa, Mesa, Calif.) (400 μg/ml in PBS), by adding 0.1 ml of this solution to an insert and incubating the inserts at room temperature for 24 h. Some of these collagen I-coated filters were then incubated with tenascin as described above.\nPMN: 250 μl of PBS [supplemented with 5.5 mM glucose and 0.1% human serum albumin (HSA) (PBSG-HSA)] containing 1×10^6 PMNs was placed in the upper compartment of each insert. 250 μl of PBSG-HSA with or without chemoattractant, as indicated, was added to the bottom compartment. The inserts were incubated for about 4 h at 37° C. in a humidified atmosphere containing 95% air/5% CO2. […] The medium in the lower compartment was collected and its content of PMN determined using a Coulter Counter, as described in Example 1."}, "PMNs [3]": {"tested_on": "PMNs", "test": "PMN migration through filters coated with fibrinogen or fibronectin", "description": "as §1\nFibrinogen or fibronectin: 0.1 ml of PBS containing 100 μg/ml fibrinogen or fibronectin (New York Blood Center, New York, N.Y.), was placed into each insert (pore size 3 μm). Inserts were incubated at 37° C. for 60 min and washed with 250 μl of PBS. Filters coated with fibrinogen or fibronectin were diffusely fluorescent as visualized by epifluorescent microscopy when incubated with the corresponding antibody [fluorescein-labeled anti-fibrinogen, or anti-fibronectin monoclonal antibodies (Cappel, Malvern, Pa.)], while uncoated filters, or filters incubated with fluorescein-labeled antibody of the opposite specificity, were not.\nPMNs were prepared from fresh heparinized blood from healthy adult volunteers by sedimentation on Ficoll-Hypaque gradients. Contaminating red blood cells were removed by hypotonic lysis, as described (7). The purity of PMN isolated by this method is >95% as determined by Wright-Giemsa staining (7). […] The medium in each lower compartment was collected and its content of PMNs was determined using either a Coulter Counter or a hemocytometer. […] Counts are expressed as the average number of PMNs that migrated into the lower compartment. […]"}}, "data": [{"molecule": "CCCCC/C=C\\C[C@@H](O)/C=C/C=C/C=C\\[C@@H](O)CCCC(=O)O", "note": "[LTB4, leukotriene B4]", "values": [{"measurement": "PMN migration through gels of Matrigel or collagen IV", "setting": "PMNs [1]", "result": "stimulated PMN migration"}, {"measurement": "PMNs that migrated through Matrigel-coated inserts", "setting": "PMNs [2]", "result": "~10", "unit": "%"}, {"measurement": "PMN migration through filters with adsorbed fibrinogen or fibronectin", "setting": "PMNs [3]", "result": "promoted PMN migration"}]}]}
